The text below walks through data of PMC8143339, “PK/PD Modeling of the PDE7 Inhibitor—GRMS-55 in a Mouse Model of Autoimmune Hepatitis” (Pharmaceutics, 2021).

Values after ≈ are worked out from the molar mass of the structure shown. “Also recorded” adds a separate entry of the source. Read-outs that look alike come from different tables or passages of the source.

Details of data set [1]: method as in PMID 31899535. The conditions noted are these: cited from earlier work.
The next data set concerns PDE3A. Also noted: method as in PMID 31899535. The conditions noted are these: cited from earlier work.
The nature of data set [2]: Assessment of emetogenicity: α2-adrenoceptor agonist-induced anesthesia (xylazine/ketamine). Type of data set: in vivo, male CD-1 mice. The settings on record: doses up to 100 mg/kg IP. As to the method: Male CD-1 mice were anesthetized with xylazine (10 mg·kg^−1) and ketamine (80 mg·kg^−1) in saline for injection-administered IP. Fifteen minutes later, the animals were IP-administered with GRMS-55 at doses of 50 or 100 mg·kg^−1, rolipram at a dose of 10 mg·kg^−1, or the corresponding volume of vehicle and subsequently placed in a dorsal recumbency position. The return of the righting reflex (i.e., when the animal turned itself spontaneously to a prone position) was used as an endpoint to measure the duration of anesthesia. In this test, shortening of the sleeping time is a behavioral correlate of emesis.

Data set [3] concerns ConA-induced hepatitis. Nature of the data set: Preliminary pharmacological evaluation in ConA-induced hepatitis. Type of data set: in vivo, BALB/c mice. The settings on record: 8 h after ConA 20 mg/kg IV; IP pretreatment: rolipram 10, BRL-50481 50, GRMS-55 50 mg/kg; vs vehicle control. Here is the method: (§1) ConA was dissolved in sterile saline (2 mg·mL^−1). The studied compounds (GRMS-55, rolipram, and BRL-50481) were dissolved in a mixture of DMSO, PEG 400, and water for injection at a ratio of 25:25:50 (v/v/v). Mice were given an IP injection of the investigated compounds or the corresponding volume of vehicle alone and, thirty minutes later, intravenously (IV) administered with ConA solution. An additional control group received vehicle alone IP instead of the studied compounds followed by IV injection of sterile saline. ConA was given at a dose of 20 mg·kg^−1. Mice were exsanguinated at several time points post-ConA injection. Blood samples were allowed to clot for 0.5 h at room temperature and then centrifuged at 3000× g for 10 min to obtain the serum, which was stored at −20 °C until further analysis.
(§2) The influence of PDE inhibitors on the levels of inflammatory mediators and transaminases in ConA-treated mice was investigated in two separate experiments. In the preliminary study, the animals were pretreated IP with GRMS-55 at a dose of 50 mg·kg^−1, the PDE4-selective inhibitor rolipram at a dose of 10 mg·kg^−1, or the PDE7-selective inhibitor BRL-50481 at a dose of 50 mg·kg^−1. Doses of the investigated compounds were chosen based on the results of previous studies. Subsequently, mice were given an IV injection of ConA and sacrificed at 8 h following mitogen dosing. The levels of TNF-α, IL-6, and IFN-γ and the activities of ALT and AST in the mouse serum were measured. This preliminary experiment allowed comparing the activity of the studied PDE inhibitors in this AIH model and helped to select the doses of GRMS-55 for a subsequent pharmacodynamic study. In the final pharmacodynamic experiment, GRMS-55 was administered at two dose levels (50 and 100 mg·kg^−1) followed by ConA administration at a dose of 20 mg·kg^−1. Animals were sacrificed at various time points post-ConA dosing (1, 2, 4, 8 and 24 h). The levels of TNF-α, IL-1β, IL-4, IL-6, IL-10, IL-12, IL-17A, and IFN-γ were measured using a multiplex Luminex assay. In addition, the activities of ALT and AST in the mouse serum were assessed. The concentration–time profiles of the selected biomarkers obtained in this experiment combined with the results of pharmacokinetic analysis allowed the development of a semi-mechanistic PK/PD/disease progression model and the investigation of concentration–effect relationships of GRMS-55.
(§3) The serum samples from the preliminary pharmacological study were analyzed using ELISA tests according to the protocols provided by the manufacturers. The TNF-α concentrations were measured using the Mouse TNF-α Quantikine ELISA Kit (R&D Systems, Minneapolis, MN, USA), while the concentrations of IL-6 and IFN-gamma were quantified by ELISA kits manufactured by Cloud-Clone Corp. (Houston, TX, USA). The absorbance of samples was measured on a POLARstar Omega multi-mode microplate reader (BMG LABTECH, Ortenberg, Germany) set at 450 nm wavelength. TNF-α, IL-1β, IL-6, IL-4, IL-10, IL-12, IL-17A, and IFN-γ serum levels in samples from pharmacodynamic experiment were determined by a premixed Magnetic Luminex Assay (R&D Systems, Inc., Minneapolis, MN, USA) according to the manufacturer’s protocol. Serum AST and ALT activities were quantified on a chemistry analyzer BS-800 (Shenzhen Mindray Bio-medical Electronics Co., Ltd., Shenzhen, China).

The next data set deals with PDE4B. The settings on record: reported in previous publication; read-out: IC50 for PDE4B inhibition; cited from earlier work.
Data set [4] concerns PDE7A. The data set is described as follows: in vitro PDE7A inhibition assay. Type of data set: biochemical. The conditions noted are these: ratio of IC50 values.
Data set [5] relates to ConA-induced hepatitis. Nature of the data set: Pharmacodynamic study and PK/PD/disease progression modeling in ConA-induced hepatitis. Type of data set: in vivo, female BALB/c mice. The conditions noted are these: for IC50: Mus musculus, serum concentration, PK/PD model, IP 50 or 100 mg/kg, ConA 20 mg/kg IV. As to the method: as §1, §2, §3
A PK/PD/disease progression model illustrated in Figure 1 was developed considering the mechanism of action of the investigated compound and the mechanisms of progression of ConA-induced hepatitis, i.e., the subsequent stages leading to the production and release of relevant biomarkers.
Moreover, possible interrelationships and interactions among the measured biomarkers were considered during the model building process. […]

For another data set, the system named is TNF-α production. Also on record: method as in PMID 31899535. The settings on record: rat lipopolysaccharide-induced endotoxemia, PK/PD model; cited from earlier work.
Data set [6] relates to PDE7A. The conditions noted are these: reported in previous publication; read-out: IC50 for PDE7A inhibition; cited from earlier work.
Data set [7] concerns paw edema in collagen-induced arthritis. Also noted: method as in PMID 31899535. The conditions noted are these: rats with collagen-induced arthritis, PK/PD arthritis progression model; cited from earlier work.
For the next data set, the system named is PDE4D. Also noted: method as in PMID 31899535. The conditions noted are these: in vitro assay at concentrations up to 200 µM; cited from earlier work.

As for `Cn1c(=O)c2c(nc(NCCc3ccccc3)n2CCCC(=O)NN=Cc2ccccc2O)n(C)c1=O` [GRMS-55, 4-(1,3-dimethyl-2,6-dioxo-8-(phenethylamino)-1,2,3,6-tetrahydro-7H-purin-7-yl)-N′-(2-hydroxybenzylidene)butanehydrazide], in [1] (male Wistar rats), the “apparent volume of distribution at steady state” value is roughly 7 L/kg. Further, in [1] (male and female rats), the half-life result is reported as “approximately 20 min”. In addition, in the data set with PDE3A, the “potency of PDE3A suppression” value was “moderate”. Also, the “effect on sleeping time” value in data set [2] was “did not affect”. In the data set with ConA-induced hepatitis [3], the “effect on serum IL-6 concentration” value is on record as “decreased”. The IC50 with PDE4B is 26.9 µM; in the data set with ConA-induced hepatitis [5] (read-out: IC50_IFN-γ, concentration resulting in 50% of Imax of IFN-γ) it was 12.3 µg/mL (≈ 24.4 µM); in the data set on ConA-induced hepatitis [5] (read-out: IC50_IL-6, concentration resulting in 50% of Imax of IL-6), 13.4 µg/mL (≈ 26.6 µM); in the data set on ConA-induced hepatitis [5] (read-out: IC50_TNF-α, concentration resulting in 50% of Imax of TNF-α), 7.97 µg/mL (≈ 15.8 µM); in the data set with PDE7A [6], 7.3 µM. Further, the “times weaker PDE7A inhibitor than BRL-50481” value in the data set with PDE7A [4] was 3.5. Besides, the “effect on serum IL-4 level” value in the data set with ConA-induced hepatitis [5] (1, 2 and 8 h post-ConA, both dose groups) is given as “decreased”. Further, the “effect on ALT and AST activities” value in the data set with ConA-induced hepatitis [5] (50 or 100 mg/kg IP) is “significant and prominent decrease”. In addition, in the data set with ConA-induced hepatitis [5] (4 h post-ConA, 50 and 100 mg/kg IP), the “effect on serum IL-12 level” value is on record as “significantly decreased”. Further, the “effect on serum IL-1β level” value in the data set with ConA-induced hepatitis [5] (8 h post-ConA, 50 and 100 mg/kg IP) was “significantly decreased”. The “effect on serum IL-17A concentration” value with ConA-induced hepatitis [5] (8 h post-ConA, both dose levels) is “decreased”. Also, the “IC50, suppression of TNF-α production” value in the data set with TNF-α production was 1.06 µg/mL. Further, the “IC50, decrease of paw edema” value in data set [7] is 0.26 µg/mL. Besides, the PDE4D inhibition entry with PDE4D is reported as “not found to inhibit; also recorded: not active”.
